Values of other authors, collected in US20100111874A1, “METHOD OF CANCER DETECTION AND TREATMENT” (University of Medicine and Dentistry of New Jresey, priority 2007, published 2010).

Test system: human colon cancer xenografts
Conditions: combined with interferons; nude mice; cited from earlier work

In the case of `CCc1c2c(nc3ccc(OC(=O)N4CCC(N5CCCCC5)CC4)cc13)-c1cc3c(c(=O)n1C2)COC(=O)[C@]3(O)CC` [CPT-11], the “anticancer activity in combination with interferons” value is given as “synergistic”.
